Marks after values point to notes of the source that are not given here.
Legend:
[1] = tested on: IL-1β; assay: IL-1β ELISA in LPS stimulated THP-1 cells; assay type: cell-based, human; conditions: for % reduction in IL-1 β levels: vs LPS control
Description: (§1) The cells in an 80% confluence culture flask were aspirated and centrifuged at 1500 rpm for 5 mins. The cell pellet was then resuspended in 1 ml of RPMI complete media and 1×10^5 cells/well seeded to each well of the 96 well microtiter plate. After 24 hrs incubation, PMA (10 ng/ml) was added to the 96 well plate to differentiate THP-1 cells to determine the TNF-α production, THP-1 cells were pretreated for 1 hr with idoBR1 or cucumber extract-Q-actin (batch no. […] Post incubation, the cell supernatant from each of the wells was aspirated into sterile micro centrifuge tubes and centrifuged at 1000 rpm for 2-3 mins. The cell supernatant was then used for evaluation of presence of cytokines using ELISA.
(§2) ELISA plates coated with antibodies for IL-12, IL-1β, or IL-10 (R&D Systems, USA) were used for the following study. To each well 50 μL of Assay Diluent RD1F was added after mixing well. 200 μL of sample (idoBR1 or extract), or control per well was added and covered with an adhesive strip. Following incubation for 2 hours at room temperature each well was aspirated and washed 4 times with Wash Buffer (400 μl). After the last wash, any remaining Wash Buffer was removed by aspirating or decanting. The plates were inverted and blotted against clean paper towels. To each well 200 μl of appropriate human conjugate was added and these then covered with a new adhesive strip and incubated for 1 hour at room temperature. The aspiration/wash was then repeated. 200 μL of Substrate Solution was then added to each well and further incubated for 20 minutes at room temperature protected from light. 50 μL of Stop Solution was added to each well. The colour in the wells was changed from blue to yellow. OD was measured within 30 minutes at 450 nm.

[2] = Oral availability: idoBR1 in urine after eating cucumbers (GC-MS); assay type: in vivo, human; conditions: for excretion of idoBR1 in urine: volunteer, roughly 13 mg consumed in cucumbers
Description: Parisien pickling cucumbers (seeds purchased from Lidl 2013) were grown organically and three eaten at midday by each of one volunteer and one volunteer. […] The volunteers ate no Cucurbitaceae food for 15 hours prior to the experiment. Urine samples pre-consumption were collected over 3 hours as t=0 and then samples collected for 9 hours for the […] and 15 hours for the person. The 30 g cucumber sample was homogenised in 50% ethanol (aq) and after 15 hours extraction it was filtered and the idoBR1 fraction bound to cation exchange resin IR120 in the H+ form. After washing the column with water, the material displaced with 2M ammonia solution was dried (52.3 mg) and analysed by GC-MS after trimethylsilylation using Pierce TriSil. The remaining 51 mg of material then had 0.2 mg of castanospermine added for comparative quantification purposes. The entire urine samples were similarly treated using cation exchange resin except the material displaced by ammonia solution was run a second time through the same cation exchange resin (now in the ammonium form) to reduce strong bases (which will bind to IR120 in the ammonium form) and only the unretained material was kept. The urine idoBR1 fractions were dried and made up to 20 ml in water. 500 ul of each was sampled and 0.025 mg of castanospermine added.
This was carried out on a Perkin Elmer Turbomass Gold GCMS. The spectrum of the major peak at 10.33 mins matched the GCMS spectrum of authentic idoBR1, 900288 PhytoQuest Ltd, UK). The relative response factor was calculated between authentic BR1 (900125, PhytoQuest Ltd) and castanospermine is 1:2. Assuming the same response factor, the amount of idoBR1 was estimated as 1.5 mg in the 30 g sample which means that the volunteers consumed roughly 260/30×1 5 mg=13 mg of idoBR1.

[3] = tested on: TNF-α; assay: LPS-stimulated TNF-α production in human whole blood (ELISA); assay type: cell-based; conditions: for TNF-α plasma + LPS: 48 h preincubation, LPS 10 μg/ml 20 h
Description: Blood and buffy coat fractions were supplied by the Scottish National Blood Transfusion Service (SNBTS), Glasgow, UK. Ficoll Histopaque (1.077 g/l), Lipopolysaccharide (from Salmonella abortus equi) was purchased from Sigma-Aldrich Co. Ltd. (UK). PGE was from Cayman Chemical Co. (Ann Arbor, MI). Human TNF-α antibody pairs for TNF-α ELISA assays was from Invitrogen/Life Sciences Europe. All drugs were dissolved in RPMI 1640 medium from Gibco BRL, UK.
Blood was used without any further treatment following donation. It was kindly supplied by the Scottish National Blood Transfusion Service from normal healthy donors as defined by ensuring they all tested negative for HIV, hepatitis B & C, CMV and parasitic diseases such as malaria (as tested by the National Blood Transfusion service). They were also confirmed by our laboratory to be free of acute inflammatory disease at the time the blood was taken by measuring the basal level of TNF-α which was always […].
Aliquots (800 μl) of whole blood were incubated with the compound dissolved in RPMI 1640, as indicated in the results, for the appropriate preincubation period after which LPS was added and incubations continued for a further 20 hr at 37° C. in a humidified (100%) atmosphere of 5% CO2 in air. At the end of the incubation period, supernatants from either plasma or culture medium were collected by centrifugation at 10,000 g for 30 seconds at room temperature and TNF-α levels measured using a human TNF-α ELISA system (BioSource Europe S.A., Belgium, supplied by Invitrogen).
Table showing the effect of various idoBR1 concentrations on LPS-stimulated TNF-α production in human blood. Whole blood was preincubated for 48 h with varying concentrations of idoBR1 after which LPS (10 μg/ml) was added and incubations continued for a further 20 h. Following incubation at 37° C. (5% CO2, 100% humidity) plasma was collected from blood by centrifugation and the levels of TNF-α In plasma samples were measured by ELISA.
Table showing the effect of various cucumber extract (0.09% idoBR1) concentrations on LPS-stimulated TNF-α production in human blood. Whole blood was preincubated for 48 h with varying concentrations of cucumber Q-Actin extract after which LPS (10 μg/ml) was added and incubations continued for a further 20 h. Following incubation at 37° C. (5% CO2, 100% humidity) plasma was collected from blood by centrifugation and the levels of TNF-α in plasma samples were measured by ELISA. Values represent the means±s.d. of n=3. * denotes P<0.05 compared to LPS alone.

[4] = tested on: IL-12; assay: IL-12 ELISA in LPS stimulated THP-1 cells; assay type: cell-based, human; conditions: for % reduction in IL-12 levels: vs LPS control
Description: as §1, §2

[5] = tested on: THP-1 cells; assay: Viability of THP-1 cells (trypan blue uptake or MTT dye conversion); assay type: cell-based, human

Q: Which IL-1β ([1]; 12.5 μg/mL) does the source give for `O=C(O)[C@@H]1NC[C@H](O)[C@@H](O)[C@@H]1O` [idoBR1, (2R,3R,4R,5S)-3,4,5-trihydroxypiperidine-2-carboxylic acid] here?
A: Its IL-1β is 133.30 pg/mL.

Q: What about the “% reduction in IL-1 β levels” value ([1]; 12.5 μg/mL) of the same compound?
A: Its value is 9.31%.

Q: What about the IL-1β ([1]; 25 μg/mL) of the same compound?
A: The IL-1β was 127.63 pg/mL.

Q: And the “% reduction in IL-1 β levels” value ([1]; 25 μg/mL)?
A: Its value is 13.17%.

Q: And the IL-1β ([1]; 50 μg/mL)?
A: The IL-1β was 120.36 pg/mL.

Q: And the “% reduction in IL-1 β levels” value ([1]; 50 μg/mL)?
A: Its value is 18.12%.

Q: And the IL-1β ([1]; 100 μg/mL)?
A: The IL-1β was 111.60 pg/mL.

Q: What about the “% reduction in IL-1 β levels” value ([1]; 100 μg/mL) of the same compound?
A: Its value is 24.07%.

Q: And the “conjugation in the urine analysis” value ([2]; human urine)?
A: Its value is “No obvious conjugation”.

Q: And the oral availability ([2]; human, eaten cucumber)?
A: The oral availability was “available orally”.

Q: And the “excretion of idoBR1 in urine” value ([2]; after 15 hours)?
A: Its value is “approximately 2.4 mg”.

Q: And the “excretion of idoBR1 in urine” value ([2]; samples collected for 9 hours)?
A: Its value is “approximately 2.1 mg”.

Q: And the “effective concentration on LPS-induced TNF-α in human blood” value [3]?
A: The value was “below 10 μM”.

Q: And the “TNF-α plasma + LPS” value ([3]; 0.01 μM)?
A: Its value is 1680 pg/mL.

Q: What about the “TNF-α plasma + LPS” value ([3]; 0.1 μM) of the same compound?
A: Its value is 950* pg/ml.

Q: What about the “TNF-α plasma + LPS” value ([3]; 1 μM) of the same compound?
A: The value was 490* pg/ml.

Q: What about the “TNF-α plasma + LPS” value ([3]; 10 μM) of the same compound?
A: The value was 500* pg/ml.

Q: What about the “TNF-α plasma (no LPS)” value ([3]; 10 μM, no LPS) of the same compound?
A: Its value is 200 pg/mL.

Q: What about the IC50 ([3]; 48 hr preincubation, human blood) of the same compound?
A: The IC50 was 182 nM.

Q: What about the “concentration with significant activity in human blood” value ([3]; second study, with pre-incubation) of the same compound?
A: The value was 0.01 µM.

Q: What about the IL-12 ([4]; 12.5 μg/mL) of the same compound?
A: Its IL-12 is 104.23 pg/mL.

Q: And the “% reduction in IL-12 levels” value ([4]; 12.5 μg/mL)?
A: Its value is 11.22%.

Q: What about the IL-12 ([4]; 25 μg/mL) of the same compound?
A: Its IL-12 is 97.37 pg/mL.

Q: What about the “% reduction in IL-12 levels” value ([4]; 25 μg/mL) of the same compound?
A: The value was 17.07%.

Q: And the IL-12 ([4]; 50 μg/mL)?
A: Its IL-12 is 92.89 pg/mL.

Q: What about the “% reduction in IL-12 levels” value ([4]; 50 μg/mL) of the same compound?
A: The value was 20.88%.

Q: And the IL-12 ([4]; 100 μg/mL)?
A: The IL-12 was 88.60 pg/mL.

Q: And the “% reduction in IL-12 levels” value ([4]; 100 μg/mL)?
A: Its value is 24.53%.

Q: And the “viability of THP-1 cells” value [5]?
A: Its value is “did not significantly alter”.

— patent US12558348B2, “Bioactive phytochemicals” (Phytoquest Limited, priority 2019, dated 2026)
